Test results: patent US4556668A, “Ethylenediamine derivatives of aryloxypropanolamine aryl esters having various medicinal properties” (American Hospital Supply Corporation, priority 1983, dated 1985)

How the values were obtained:
guinea pig right atria [1] = assay: Beta blocking activity in vitro, guinea pig right atria (isoproterenol-induced rate change); details: ratio greater than one indicates cardioselectivity
Method: (§1) Compounds of the present invention are tested for β-blocking activity in vitro using guinea pig right atria and guinea pig tracheal strips mounted in a tissue bath containing oxygenated (95% O2 -5% CO2) Krebs physiological salt solution at 37° C. Each tissue is suspended between a fixed glass rod and a Statham Universal Transducer connected to a Beckman recorder. Atria were allowed to beat spontaneously under a loading tension of approximately 0.5 gm. Intrinsic depressant or stimulant activity is determined for each compound by progressively increasing concentrations in the tissue baths at 60-minute intervals. Tissues are not washed between increments. The maximum concentration showing little or no cardiodepressant activity is chosen for blockade experiments. Changes in rate in response to isoproterenol, a standard β-receptor agonist, is measured in the absence and presence of test compounds. Spiral strips of guinea pig trachea are suspended under 5 gm resting tension and incubated with phentolamine, tropolone and cocaine. Active tension is generated by addition of carbachol (3.0×10^-7 M) and decreases in tension in response to isoproterenol are quantitated. Cumulative concentration-response curves are produced with isoproterenol both before and after 60-minute incubation of test compounds with atria and trachea. […]

guinea pig right atria [2] = biological target: T1, guinea pig right atria (Cavia porcellus, UniProt H0W3H1); assay: as above; details: guinea pig right atria, vs isoproterenol, 60-minute incubation; read-out: pA2 value in the atria (converted)
T1 construct: from tissue; host or cells: guinea pig right atria (isolated, spontaneously beating)
Method: as §1

[3] = test system: β-blockade of isoproterenol heart rate response; assay: Duration of beta-blocking action in vivo, anesthetized dogs; parameters: species or system dog; details: pentobarbital-anesthetized dogs, after 3-hour infusion, isoproterenol 0.5 μg/kg bolus
Method: The duration of β-blockade is determined In vivo using pentobarbital-anesthetized dogs instrumented for measurement of heart rate using a Beckman cardiotachometer triggered electronically by a phasic aortic blood pressure signal. Both vagus nerves are severed in the cervical region and the animals are mechanically ventilated. The experimental design used employs a 3-hour infusion of test compound. Bolus doses of isoproterenol (0.5 μg/kg) are used to assess the degree of β-blockade and recovery from β-blockade after […] of the infusion. The doses are spaced at 10-minute intervals and are given before, during and following the infusion of test compounds. The infusion rate is adjusted so that at the end of the 3-hour infusion period the degree of isoproterenol inhibition averaged about 50% of control. Following termination of blocker infusion, percent recovery from β-blockade is computed and the time associated with 80% recovery estimated.

[4] = biological target: T2, guinea pig tracheal strips (Cavia porcellus, UniProt Q8K4Z4); assay: Beta blocking activity in vitro, guinea pig tracheal strips (isoproterenol-induced relaxation); details: carbachol tension, vs isoproterenol, 60-minute incubation, read-out: pA2 value in the trachea (converted)
T2 construct: from tissue; host or cells: guinea pig tracheal spiral strips
Method: as §1

T1 sequence (H0W3H1 1-470): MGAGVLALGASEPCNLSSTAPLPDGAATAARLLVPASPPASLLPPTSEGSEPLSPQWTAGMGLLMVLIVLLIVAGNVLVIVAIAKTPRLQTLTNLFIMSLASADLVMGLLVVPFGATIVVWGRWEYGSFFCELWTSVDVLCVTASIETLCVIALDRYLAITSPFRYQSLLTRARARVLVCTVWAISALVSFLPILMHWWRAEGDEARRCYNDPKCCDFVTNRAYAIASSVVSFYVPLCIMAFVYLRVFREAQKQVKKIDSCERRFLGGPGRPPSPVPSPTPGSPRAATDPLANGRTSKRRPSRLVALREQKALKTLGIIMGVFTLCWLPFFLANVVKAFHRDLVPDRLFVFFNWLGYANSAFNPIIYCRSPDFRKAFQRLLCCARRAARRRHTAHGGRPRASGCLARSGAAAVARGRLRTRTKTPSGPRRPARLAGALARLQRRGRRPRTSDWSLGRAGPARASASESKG
T2 sequence (Q8K4Z4 whole entry): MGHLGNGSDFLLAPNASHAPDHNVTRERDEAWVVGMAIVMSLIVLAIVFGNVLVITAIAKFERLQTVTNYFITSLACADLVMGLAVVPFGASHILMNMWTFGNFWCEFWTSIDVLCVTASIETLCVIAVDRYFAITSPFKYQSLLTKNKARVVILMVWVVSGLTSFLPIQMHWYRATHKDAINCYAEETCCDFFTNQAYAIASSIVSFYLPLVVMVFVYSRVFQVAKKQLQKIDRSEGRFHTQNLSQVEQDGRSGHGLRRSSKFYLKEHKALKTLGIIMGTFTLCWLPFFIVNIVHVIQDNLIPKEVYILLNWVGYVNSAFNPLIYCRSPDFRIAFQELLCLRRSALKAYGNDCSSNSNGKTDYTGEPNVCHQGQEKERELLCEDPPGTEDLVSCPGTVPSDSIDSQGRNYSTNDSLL

- Kb (guinea pig right atria [2]): 31.6 nM
- Kb [4]: 79.4 nM
SMILES: COC(=O)c1ccccc1OCC(O)CNCCNc1ccc([N+](=O)[O-])cn1 (stereo not shown) [Example I, Methyl 2[2-Hydroxy-3-[2-[2-(5-nitropyridinyl)amino]ethyl]aminopropoxy benzoate]
- cardioselectivity (ratio KB trachea/KB atria) (guinea pig right atria [1]): 2.5
- in vivo duration of action (time to 80% recovery from β-blockade) [3]: 15 ± 6 min
